{"source": "paper PMC7033309", "about": "“π-Helix controls activity of oxygen-sensing diguanylate cyclases” (Bioscience Reports, 2020)", "key": {"PccGCS [1]": {"target": "T1, PccGCS (Pectobacterium carotovorum, UniProt C6D9C2, H237A/K238A)", "T1 construct": "gene PC1_2619; full-length PccGCS H237A/K238A (His-tagged)", "T1 sequence (C6D9C2 1-471 H237A/K238A)": "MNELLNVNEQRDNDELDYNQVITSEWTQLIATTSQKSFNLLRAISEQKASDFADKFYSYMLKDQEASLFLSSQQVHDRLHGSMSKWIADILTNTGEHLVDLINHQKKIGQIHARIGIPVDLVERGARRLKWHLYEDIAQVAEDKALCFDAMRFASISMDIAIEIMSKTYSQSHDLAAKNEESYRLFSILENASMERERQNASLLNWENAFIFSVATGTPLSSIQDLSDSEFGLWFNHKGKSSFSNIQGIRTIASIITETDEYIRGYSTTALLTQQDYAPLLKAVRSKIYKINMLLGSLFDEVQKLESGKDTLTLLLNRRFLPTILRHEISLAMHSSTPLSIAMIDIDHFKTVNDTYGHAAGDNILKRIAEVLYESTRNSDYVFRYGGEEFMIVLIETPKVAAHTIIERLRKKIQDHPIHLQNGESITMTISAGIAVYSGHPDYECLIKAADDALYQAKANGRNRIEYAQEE", "experiment": "EnzChek pyrophosphate diguanylate cyclase turnover assay with purified protein, […] GTP", "format": "biochemical"}, "PccGCS [2]": {"target": "T2, PccGCS (Pectobacterium carotovorum, UniProt C6D9C2)", "T2 construct": "gene PC1_2619; full-length PccGCS WT (His-tagged)", "experiment": "EnzChek pyrophosphate diguanylate cyclase turnover assay with purified protein, […] GTP", "format": "biochemical"}}}
{"smiles": "Nc1nc2c(ncn2[C@@H]2O[C@H](COP(=O)(O)OP(=O)(O)OP(=O)(O)O)[C@@H](O)[C@H]2O)c(=O)[nH]1", "note": "[GTP]", "values": [{"measurement": "EnzChek pyrophosphate diguanylate cyclase turnover assay with purified protein,", "setting": "PccGCS [1]", "result": 0.0227, "unit": "min⁻¹"}, {"measurement": "EnzChek pyrophosphate diguanylate cyclase turnover assay with purified protein,", "setting": "PccGCS [2]", "result": 0.759, "unit": "min⁻¹"}]}
